Results reported in patent publication US7022311B1, “Powdery inhalational preparations and process for producing the same” (Kaken Pharmaceutical Co., Ltd., priority 1999, dated 2006).
Where a name gives a salt, the structure may show the parent alone. Square brackets hold non-standard residues; d marks the D form. Peptide text beside a SMILES is read from it. d2Nal = N[C@H](Cc1ccc2ccccc2c1)C(=O)O

Columns and labels:
[1] = Moisture absorption test (hygroscopic properties) of test carriers; format: physicochemical; design: key to % Moisture Absorption: x: Not possible to measure (because the samples deliquesced.); settings: for % Moisture Absorption: 25° C.; for Hygroscopicity, result in words: moisture absorption tests, comparison of carriers
Method: For the objective of selecting a material suitable as the carrier for a dry powder inhalation, moisture absorption tests were performed on erythritol, xylitol, lactose, D-mannitol, Amalty, glucose, Stevia, Benecoat and aspartame. […] (Tables 1, 2, and 3)
In order to ascertain that trehalose is a material having properties suitable as a carrier for dry powder inhalations, it was compared to lactose, a well-known carrier for dry powder inhalation. A test was carried out for comparing hygroscopicity. The trehalose used was the product of Asahi Kasei Kogyo KK, and Lactose 325M from the DMV Company. […] (Table 4, 5)

[2] = In vitro lung delivery fraction test with multi-stage cascade impactor (Andersen sampler, Jethaler); format: physicochemical; settings: Example 11: Pralmorelin dihydrochloride 5.0%, carrier erythritol 93.5%, micronized lactose 1.5%, 28.3 L/min
Method: Capsulated preparations (The Japanese Pharmacopeia No. 2 HPMC capsules: manufactured by Shionogi Qualicaps Co., Ltd.) which were filled with about 40 mg each of three dry powder inhalations were prepared and mounted on an inhaler device (Jethaler; Unisia Jecs Corp.) The Jethaler was then attached to the mouthpiece of a cascade impactor (Andersen sampler Model AN-200) and inspired at a flow rate of 28.3 L/min., thereby dispersing the micronized medication in the capsule and measuring the residual active ingredient in the capsule and in the inhaler device as well as the distribution of the active ingredient at each stage with liquid chromatography. It was confirmed that in the in vitro test with cascade impactor, the lung delivery fraction at stages 2–7 corresponding to the respiring fraction differed substantially depending on the different carrier particles.
(§1) Capsulated preparations (The Japanese Pharmacopeia No. 2HPMC capsules: manufactured by Shionogi Qualicaps Co., Ltd.), which were filled with about 40 mg each of three dry powder inhalations, were prepared and mounted on an inhaler device (Jethaler®; Unisia Jecs Corp.). The Jethaler® brand device was then attached to the mouthpiece of a cascade impactor (Andersen sampler; Model AN-200) and inspired at a flow rate of 28.3 L/min., thereby dispersing the dry powder inhalation in the capsule and measuring the residual active ingredient in the capsule and in the inhaler device as well as the distribution of the active ingredient at each stage with liquid chromatography.
(§2) A capsulated preparation (The Japanese Pharmacopeia No. 2HPMC capsules: manufactured by Shionogi Qualicaps Co., Ltd.) which was filled with about 40 mg of the prepared dry powder inhalations was prepared and mounted on an inhaler device (Jethaler; Unisia Jecs Corp.) The Jethaler was then attached to the mouthpiece of a cascade impactor (Andersen sampler; Model AN-200) and inspired at a flow rate of 28.3 L/min., thereby dispersing the dry powder inhalation in the capsule and measuring the residual active ingredient in the capsule and in the inhaler device as well as the distribution of the active ingredient at each stage with liquid chromatography.
as §1, with “A capsulated preparation (The” for “Capsulated preparations (The”, “which was” for “which were”, “mg” for “mg each”, “chromatography. […]” for “chromatography.”
as §2, with “2 HPMC” for “2HPMC”, “Ltd.)” for “Ltd.) which was”, “inhalation” for “inhalations”

[3] = Table 1, Humidity 60%, 24 Hours
[4] = Table 1, Humidity 60%, 72 Hours
[5] = Table 1, Humidity 60%, 168 Hours
[6] = Table 1, Humidity 60%, 366 Hours
[7] = Table 2, Humidity 75%, 24 Hours
[8] = Table 2, Humidity 75%, 48 Hours
[9] = Table 2, Humidity 75%, 72 Hours
[10] = Table 2, Humidity 75%, 168 Hours
[11] = Table 2, Humidity 75%, 336 Hours
[12] = Table 3, Humidity 90%, 24 Hours
[13] = Table 3, Humidity 90%, 48 Hours
[14] = Table 3, Humidity 90%, 72 Hours
[15] = Table 3, Humidity 90%, 168 Hours
[16] = Table 3, Humidity 90%, 16 Hours
[17] = Table 4, Humidity 60%, 24 Hours
[18] = Table 4, Humidity 60%, 72 Hours
[19] = Table 4, Humidity 60%, 168 Hours
[20] = Table 4, Humidity 60%, 366 Hours
[21] = Table 5, Humidity 75%, 48 Hours
[22] = Table 5, Humidity 75%, 72 Hours
[23] = Table 5, Humidity 75%, 168 Hours

SMILES	% Moisture Absorption [1, 3] [%]	% Moisture Absorption [1, 4] [%]	% Moisture Absorption [1, 5] [%]	% Moisture Absorption [1, 6] [%]	% Moisture Absorption [1, 7] [%]	% Moisture Absorption [1, 8] [%]	% Moisture Absorption [1, 9] [%]	% Moisture Absorption [1, 10] [%]	% Moisture Absorption [1, 11] [%]	% Moisture Absorption [1, 12] [%]	% Moisture Absorption [1, 13] [%]	% Moisture Absorption [1, 14]	% Moisture Absorption [1, 15]	% Moisture Absorption [1, 16] [%]	also measured
OC[C@@H](O)[C@@H](O)CO [Erythritol]	0.000	0.000	0.000	0.000	0.008	0.011	0.014	0.010	0.012	0.055	0.070	0.070%	0.070%		Hygroscopicity, result in words [1]: least hygroscopic
OC[C@@H](O)[C@@H](O[C@H]1O[C@H](CO)[C@@H](O)[C@H](O)[C@H]1O)[C@H](O)[C@@H](O)CO [Amalty]					0.478	1.138	1.171	1.252		0.971	2.513	3.373%	8.391%	0.775	
COC(=O)[C@H](Cc1ccccc1)NC(=O)[C@@H](N)CC(=O)O [Aspartame] (H-Asp-Phe-OMe)					6.539	10.877	10.985	11.163		10.741	11.448	11.521%	11.749%	10.476	
C[C@H](NC(=O)[C@@H](Cc1ccc2ccccc2c1)NC(=O)[C@@H](C)N)C(=O)N[C@@H](Cc1c[nH]c2ccccc12)C(=O)N[C@H](Cc1ccccc1)C(=O)N[C@@H](CCCCN)C(N)=O [Pralmorelin dihydrochloride, reference compound] (H-[dA][d2Nal]AW[dF]K-NH2)															Residual and Distributed Fractions of Active Ingredient (%): Capsule [2]: 3.6%; Residual and Distributed Fractions of Active Ingredient (%): Inhaler device [2]: 11.5%; Residual and Distributed Fractions of Active Ingredient (%): Stage 0 [2]: 7.7%; Residual and Distributed Fractions of Active Ingredient (%): Stage 1 [2]: 26.6%
OC[C@@H](O)[C@H](O)[C@@H](O)CO [Xylitol]	0.000	0.000	0.019	0.021	0.087	0.104	0.126	0.124	0.126	3.796	17.917	x	x		
OC[C@H]1O[C@@H](O[C@H]2[C@H](O)[C@@H](O)C(O)O[C@@H]2CO)[C@H](O)[C@@H](O)[C@H]1O (stereo partly shown) [Lactose 325M, Lactose]	0.000	0.000	0.000	0.000	0.029		0.031	0.033	0.031	0.094		0.090%	0.092%		% Moisture Absorption [1, 17]: 0.000%; % Moisture Absorption [1, 18]: 0.000%; % Moisture Absorption [1, 19]: 0.000%; % Moisture Absorption [1, 20]: 0.000%; % Moisture Absorption ([1]; Table 5, Humidity 75%, 16 Hours): 0.029%; % Moisture Absorption [1, 21]: 0.031%; % Moisture Absorption [1, 22]: 0.033%; % Moisture Absorption [1, 23]: 0.031%
OC[C@@H](O)[C@@H](O)[C@H](O)[C@H](O)CO [D-Mannitol]					0.019	0.019	0.019	0.028		0.672	0.806	0.916%	1.122%	0.539	
OC[C@H]1O[C@H](O[C@H]2O[C@H](CO)[C@@H](O)[C@H](O)[C@H]2O)[C@H](O)[C@@H](O)[C@@H]1O [Trehalose]															% Moisture Absorption [1, 17]: 0.000%; % Moisture Absorption [1, 18]: 0.000%; % Moisture Absorption [1, 19]: 0.000%; % Moisture Absorption [1, 20]: 0.000%; % Moisture Absorption [1, 21]: 0.008%; % Moisture Absorption [1, 22]: 0.023%; % Moisture Absorption [1, 23]: 0.020%; Hygroscopicity, result in words [1]: only slightly hygroscopic
